Results from patent publication US20100130549A1, “PSYCHOTROPIC COMPOUNDS, COMPOSITIONS AND METHODS OF USE” (priority 2007, published 2010).

What was measured:
Adrenergic α2c = biological target: T1, Adrenergic α2c (Homo sapiens, UniProt P18825); test: Radioligand binding assay, Adrenergic α2c
T1 construct: 203800
T1 sequence (P18825 1-462): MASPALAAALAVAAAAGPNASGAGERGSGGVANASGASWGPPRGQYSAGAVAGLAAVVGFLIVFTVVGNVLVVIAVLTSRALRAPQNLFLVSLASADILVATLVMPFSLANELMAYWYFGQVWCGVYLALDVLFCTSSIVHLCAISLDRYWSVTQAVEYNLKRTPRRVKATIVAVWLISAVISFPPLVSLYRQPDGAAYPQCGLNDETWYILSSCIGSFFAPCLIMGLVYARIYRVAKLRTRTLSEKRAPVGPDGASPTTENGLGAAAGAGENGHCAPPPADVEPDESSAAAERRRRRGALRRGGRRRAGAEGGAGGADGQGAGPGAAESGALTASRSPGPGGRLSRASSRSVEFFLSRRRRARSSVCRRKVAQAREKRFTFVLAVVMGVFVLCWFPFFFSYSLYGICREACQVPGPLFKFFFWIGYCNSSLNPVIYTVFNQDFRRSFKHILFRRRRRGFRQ
Source text: (§1) . Table 1 provides data produced via a receptor binding assay and IC50 and Ki determination. […] In addition, the compound of formula (Ia) has a potent DAT inhibition, which is indicative of dopaminergic uptake inhibition and increased DA activity. In addition to the effect on SERT and DAT, the compound of formula (Ia) inhibited the transporter of Norepinephrine (NET), and several neurotransmitter's receptors like alpha2A and alpha2C receptors, alpha 1A and alphal C, 5HT2A and 5HT2C, signal histamine2 and dopamine D1. This specific profile is in line with the data on antidepressant, anxiolytic and moderate neuro-stimulation activity observed in the animal model studies.
(§2) With regard to the data provided in Table 1, the biochemical assay results are presented as the percent inhibition of specific binding or activity throughout the report. For primary assays, only the lowest concentration with a significant response judged by the assays’ criteria, is shown in this summary. […] Unless otherwise requested, primary screening in duplicate with quantitative data (e.g., IC50±SEM, Ki±SEM and nH) are shown.

Adrenergic α1B = biological target: T2, Adrenergic α1B (Rattus norvegicus, UniProt P15823); test: Radioligand binding assay, Adrenergic α1B
T2 sequence (P15823 1-515): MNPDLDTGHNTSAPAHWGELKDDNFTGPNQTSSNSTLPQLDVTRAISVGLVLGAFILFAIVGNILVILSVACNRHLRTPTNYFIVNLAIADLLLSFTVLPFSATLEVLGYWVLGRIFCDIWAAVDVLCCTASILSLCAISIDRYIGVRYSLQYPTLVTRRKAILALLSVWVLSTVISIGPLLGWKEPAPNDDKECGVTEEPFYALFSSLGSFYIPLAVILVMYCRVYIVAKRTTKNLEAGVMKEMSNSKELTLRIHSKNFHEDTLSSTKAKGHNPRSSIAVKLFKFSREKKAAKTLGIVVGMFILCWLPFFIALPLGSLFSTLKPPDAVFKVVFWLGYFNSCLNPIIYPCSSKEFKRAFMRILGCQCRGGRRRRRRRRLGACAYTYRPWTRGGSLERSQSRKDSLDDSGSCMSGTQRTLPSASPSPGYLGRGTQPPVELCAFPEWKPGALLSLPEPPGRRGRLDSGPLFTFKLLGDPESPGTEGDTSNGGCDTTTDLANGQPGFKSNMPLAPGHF
Source text: as §1, §2

Sigma σ1 = Sigma σ1 (Homo sapiens, UniProt Q99720); test: Radioligand binding assay, Sigma σ1
Source text: as §1, §2

[1] = biological target: Transporter, Norepinephrine (NET) (Homo sapiens, UniProt P23975); test: Radioligand binding assay, Norepinephrine transporter
Source text: as §1, §2

[2] = biological target: Serotonin (5-Hydroxytryptamine) 5-HT2A (Homo sapiens, UniProt P28223); test: Radioligand binding assay, 5-HT2A
Source text: as §1, §2

Adrenergic α1A = biological target: T3, Adrenergic α1A (Rattus norvegicus, UniProt P43140); test: Radioligand binding assay, Adrenergic α1A
T3 sequence (P43140 1-466): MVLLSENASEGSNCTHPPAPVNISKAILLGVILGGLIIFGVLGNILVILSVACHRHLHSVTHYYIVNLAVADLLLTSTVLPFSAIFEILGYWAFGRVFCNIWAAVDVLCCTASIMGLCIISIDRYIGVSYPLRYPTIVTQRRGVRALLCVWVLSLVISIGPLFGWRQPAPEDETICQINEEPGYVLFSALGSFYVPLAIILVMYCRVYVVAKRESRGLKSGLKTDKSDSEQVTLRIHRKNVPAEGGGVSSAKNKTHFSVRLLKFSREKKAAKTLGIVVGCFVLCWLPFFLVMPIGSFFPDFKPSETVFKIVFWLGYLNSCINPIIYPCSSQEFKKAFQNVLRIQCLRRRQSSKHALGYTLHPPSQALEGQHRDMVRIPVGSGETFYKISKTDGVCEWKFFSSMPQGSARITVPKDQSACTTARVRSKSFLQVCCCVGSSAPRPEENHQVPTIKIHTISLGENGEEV
Source text: as §1, §2

[3] = biological target: T4, Serotonin (5-Hydroxytryptamine) 5-HT2C (Homo sapiens, UniProt P28335); test: Radioligand binding assay, 5-HT2C
T4 sequence (P28335 33-458): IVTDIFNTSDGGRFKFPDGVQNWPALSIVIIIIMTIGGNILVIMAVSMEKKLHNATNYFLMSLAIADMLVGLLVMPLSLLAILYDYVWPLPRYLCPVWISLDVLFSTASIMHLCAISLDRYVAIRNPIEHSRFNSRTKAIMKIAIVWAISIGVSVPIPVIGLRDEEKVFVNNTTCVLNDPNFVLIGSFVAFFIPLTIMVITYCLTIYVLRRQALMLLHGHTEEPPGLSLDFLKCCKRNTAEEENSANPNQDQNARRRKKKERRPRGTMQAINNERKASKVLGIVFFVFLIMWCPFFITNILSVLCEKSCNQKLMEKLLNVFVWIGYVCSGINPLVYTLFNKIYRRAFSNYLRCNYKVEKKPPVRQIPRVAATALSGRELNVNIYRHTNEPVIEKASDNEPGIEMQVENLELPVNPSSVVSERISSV
Source text: as §1, §2

BALB/c mice = test: Elevated plus maze; details: 10 mg/kg (equimolar) ip 1 hr prior
Source text: The apparatus is made of wood and painted black, with two opposing open arms and two opposite enclosed arms of the same size. The arms are attached to a central square shaped in a plus sign. The whole apparatus is placed 50 cm above the floor. Anxious animals refrain from entry to the open arm and prefer the closed arm.
The data is presented as the mean±SEM of 12 animals.

Sequence of Serotonin (5-Hydroxytryptamine) 5-HT2A (P28223 whole entry): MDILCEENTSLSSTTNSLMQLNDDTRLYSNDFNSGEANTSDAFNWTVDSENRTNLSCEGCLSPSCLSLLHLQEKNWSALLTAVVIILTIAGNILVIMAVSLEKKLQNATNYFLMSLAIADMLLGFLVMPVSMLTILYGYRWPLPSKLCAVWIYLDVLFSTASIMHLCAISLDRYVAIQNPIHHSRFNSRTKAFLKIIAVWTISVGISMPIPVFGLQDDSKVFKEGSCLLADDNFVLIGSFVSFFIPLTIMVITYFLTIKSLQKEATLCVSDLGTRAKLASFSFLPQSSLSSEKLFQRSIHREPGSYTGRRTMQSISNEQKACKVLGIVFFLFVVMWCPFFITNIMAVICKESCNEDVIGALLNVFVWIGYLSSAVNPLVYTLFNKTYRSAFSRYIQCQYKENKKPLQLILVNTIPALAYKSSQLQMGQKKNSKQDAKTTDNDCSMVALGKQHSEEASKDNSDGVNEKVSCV
Sequence of Transporter, Norepinephrine (NET) (P23975 whole entry): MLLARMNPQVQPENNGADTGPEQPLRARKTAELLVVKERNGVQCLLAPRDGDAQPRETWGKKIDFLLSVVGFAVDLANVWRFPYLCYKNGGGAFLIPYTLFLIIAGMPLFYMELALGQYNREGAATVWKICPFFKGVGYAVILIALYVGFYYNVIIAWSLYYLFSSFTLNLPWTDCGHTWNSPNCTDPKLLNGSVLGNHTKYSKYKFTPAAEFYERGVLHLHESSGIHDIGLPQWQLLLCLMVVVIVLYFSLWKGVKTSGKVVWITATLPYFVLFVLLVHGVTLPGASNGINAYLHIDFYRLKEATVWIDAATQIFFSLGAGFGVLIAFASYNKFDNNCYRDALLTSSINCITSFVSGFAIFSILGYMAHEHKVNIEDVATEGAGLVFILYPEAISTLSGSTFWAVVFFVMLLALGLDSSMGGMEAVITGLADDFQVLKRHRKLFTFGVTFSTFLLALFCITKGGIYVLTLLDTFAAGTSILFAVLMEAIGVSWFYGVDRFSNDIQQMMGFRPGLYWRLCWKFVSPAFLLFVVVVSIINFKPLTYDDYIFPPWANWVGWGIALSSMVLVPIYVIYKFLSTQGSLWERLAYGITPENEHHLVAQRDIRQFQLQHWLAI
Sequence of Sigma σ1 (Q99720 whole entry): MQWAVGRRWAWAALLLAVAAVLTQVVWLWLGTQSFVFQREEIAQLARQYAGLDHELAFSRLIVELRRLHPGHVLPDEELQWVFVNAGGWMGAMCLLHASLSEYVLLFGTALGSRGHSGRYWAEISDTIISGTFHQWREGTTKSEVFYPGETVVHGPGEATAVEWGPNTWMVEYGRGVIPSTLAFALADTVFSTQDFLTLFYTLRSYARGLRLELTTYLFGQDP

## CN[C@H]1CC[C@@H](c2ccc(Cl)c(Cl)c2)c2ccc(C#CCCCO)cc21 [compound Ia, (1S-cis)-4-(3,4-dichlorophenyl)-7-(5-hydroxy-1-pentyn-1-yl)-1,2,3,4-tetrahydro-N-methyl-1-naphthalenamine hydroiodide]
Adrenergic α2c
  IC50: 1900 nM
  nH: 1.03
Adrenergic α2c; 3 μM
  inhibition at 3 µM: 62%
Adrenergic α2c; read-out: K1
  Ki: 276 nM
Adrenergic α1B
  IC50: 562 nM
  nH: 1.08
Adrenergic α1B; 1 μM
  inhibition at 1 µM: 63%
Adrenergic α1B; read-out: K1
  Ki: 311 nM
Sigma σ1
  IC50: 837 nM
  nH: 0.627
Sigma σ1; 3 μM
  inhibition at 3 µM: 69%
Sigma σ1; read-out: K1
  Ki: 352 nM
[1]
  IC50: 623 nM
  nH: 0.977
[1]; 1 μM
  inhibition at 1 µM: 62%
[1]; read-out: K1
  Ki: 618 nM
[2]
  IC50: 3370 nM
  nH: 1.06
[2]; read-out: % INH.
  inhibition at 10 µM: 81%
[2]; read-out: K1
  Ki: 965 nM
Adrenergic α1A
  IC50: 4200 nM
  nH: 1.34
Adrenergic α1A; 10 μM
  inhibition at 10 µM: 73%
Adrenergic α1A; read-out: K1
  Ki: 1700 nM
[3]
  IC50: 9160 nM
  nH: 2.15
[3]; read-out: % INH.
  inhibition at 10 µM: 54%
[3]; read-out: K1
  Ki: 4800 nM
BALB/c mice
  anti-anxiety effect: significant anti-anxiety effect
